Measured values published in patent US20200079757A1, “COMPOUNDS FOR THE TREATMENT OF RESPIRATORY DISEASES” (THE UNIVERSITY OF MELBOURNE, priority 2017, published 2020).
Like-named read-outs stand apart in the source and are kept apart here.

How the values were obtained:
liver gene expression = test: Liver fibrogenic gene expression after oral (gavage) dosing in bleomycin-treated mice; type: in vivo, mouse; conditions: female C57BL6 mice, 30 mg/kg po once daily day −1 to 3, 3 days after transnasal bleomycin
Experimental: FIG. 11. The effects of oral (gavage) PF670462 or […] were investigated in female C57BL6 mice, with a focus on liver gene expression. […] Data are presented as mean±SEM (n=4). In studies to ascertain the effect of oral administration of either PF670462 or SS8-058 we harvested the liver on day 3 from mice that had been treated transnasally with bleomycin on day 0 to measure gene expression of products that are implicated in fibrogenesis. Mice were treated once daily by gavage from day −1 to day 3 with either PF670462 or SS8-058 (30 mg/kg, po).

TGFβ-activated A549 = TGFβ-activated A549 gene expression (modulation of mRNA level, RT-qPCR); type: cell-based; conditions: for IC50: Homo sapiens, A549, agent 0.1-10 μM before TGF-β (100 pM) 24 hr
Experimental: The selected potential candidate was also assayed in A549 alveolar epithelial cells, a commonly-used cell model for epithelial-mesenchymal transition (EMT) investigation. The agents were added at the indicated concentrations 30 min prior to the addition of TGF-β which was incubated for a further 24 hours. Then, the cellular RNA was harvested to measure the regulation of the EMT-associated genes and fibrogenic genes.
A549 alveolar epithelial cells (ATCC, Manasas, Va., USA) were cultured in DMEM containing 5% (v/v) FCS, 15 mM HEPES, 0.2% (v/v) sodium bicarbonate, 2 mM L-glutamine, 1% (v/v) non-essential amino acids, 1% (v/v) sodium pyruvate, 5 IU/mL penicillin and 50 μg/mL streptomycin as previously described (S. Salem, T. Harris, J. Mok Shiueh Lian, M. Yuen Sin Li, C. R. Keenan, M. J. Schuliga, and A. G. Stewart (2012). Transforming growth factor-p impairs glucocorticoid activity in the A549 lung adenocarcinoma cell line. Br J Pharmacol. 166: 2036-2048).
Prior to experimentation, BEAS-2B and A549 cells were incubated in serum-free DMEM containing 0.25% bovine serum albumin (BSA) and insulin-transferrin-selenium—containing supplement (Monomed A; CSL, Parkville, Melbourne, Australia). Where indicated, cells were treated with one of the series of synthesised compounds (0.3-10 μM) prior to exposure to 100 pM TGF-β1 (R&D Systems, Minneapolis, Minn.) or 300 pM bFGF (Promega, Madison, Wis.).
Total RNA was extracted from cultured cells using illustra RNAspin Mini RNA Isolation Kit (GE Healthcare). RNA extracts were reverse-transcribed into cDNA using High-Capacity RNA-to-cDNA Kit (Applied Biosystems). Real-time PCR was then performed using a QuantStudio 6 Flex Real-Time PCR System using iTaq Universal SYBR green supermix and the following thermal protocol: 50° C. (2 min), 95° C. (10 min), then 40 cycles of 95° C. (15 sec), 60° C. (1 min). The threshold cycle (CT) values determined for target genes were normalized against those obtained for 18S ribosomal RNA (18S rRNA), which was included as internal control. The generation of specific PCR products was confirmed by dissociation curve analysis.
EMT is a feature of the pathogenesis of fibrosis that is relevant to epithelial tumour metastases and fibrogenesis in organs such as heart, kidney liver and lung, and is known to contribute to idiopathic pulmonary fibrosis (IPF) as well as being thought to make a contribution to the fibrosis known to occur in asthma and COPD. […] The potencies of PF670462 and SS9-010 in modulating induction of CTGF are not statistically distinguishable. […] The potency of these two agents in regulating vimentin induction by TGF-β could not be assessed, as the concentration-response relationship for PF670462 could not be fitted. However, the effects of SS9-010 were significant at 3 μM, whereas PF670462 (3 μM) had no effect.

[1] = test system: SCNN1A gene expression in BEAS-2B cells; test: TGF-β-induced suppression of dexamethasone-induced SCNN1A gene expression in BEAS-2B cells; type: cell-based; conditions: for SCNN1A mRNA level, Dex / SCNN1A mRNA level, TGF-β / SCNN1A mRNA level, TGF-β/Dex / SCNN1A mRNA level, vehicle (no stimulus): BEAS-2B
Experimental: The primary assay for the activity of the novel CK1δ/ε inhibitors is the modulation of gene expression in the airway epithelial cell line, the BEAS-2B cells. The assay is conducted under several conditions. Generally, TGF-β or TNF-α is used to elicit fibrogenic or inflammatory genes, respectively. The agents are added at a concentration of 10 μM, or at the indicated concentrations for a period of 30 min prior to the addition of TGF-β/TNF-α which are incubated for a further 20 hours before the addition, in some experiments of the glucocorticoid, dexamethasone (Dex, 30 nM) for the final 4 hours of the experiment, prior to harvest of cellular RNA to measure by RT-qPCR the levels of mRNA of marker genes for inflammation and fibrogenesis. The inhaled corticosteroid (ICS), budesonide is also used in some experiments. Furthermore, the supernatants are harvested at the end of the incubation periods in selected experiments to measure the levels of CSF-2 or IL-8 by ELISA as described in (Tran et al. (2005) British Journal of Pharmacology, 145, 123-131). Prior to experimentation, BEAS-2B and A549 cells were incubated in serum-free DMEM containing 0.25% bovine serum albumin (BSA) and insulin-transferrin-selenium—containing supplement (Monomed A; CSL, Parkville, Melbourne, Australia). Where indicated, cells were treated with one of the series of synthesised compounds (0.3-10 μM) prior to exposure to 100 pM TGF-β1 (R&D Systems, Minneapolis, Minn.) or 300 pM bFGF (Promega, Madison, Wis.). Total RNA was extracted from cultured cells using illustra RNAspin Mini RNA Isolation Kit (GE Healthcare). RNA extracts were reverse-transcribed into cDNA using High-Capacity RNA-to-cDNA Kit (Applied Biosystems). Real-time PCR was then performed using a QuantStudio 6 Flex Real-Time PCR System using iTaq Universal SYBR green supermix and the following thermal protocol: 50° C. (2 min), 95° C. (10 min), then 40 cycles of 95° C. (15 sec), 60° C. (1 min). The threshold cycle (CT) values determined for target genes were normalized against those obtained for 18S ribosomal RNA (18S rRNA), which was included as internal control. The generation of specific PCR products was confirmed by dissociation curve analysis. In FIG. 1, the effects of SS9-010 are contrasted with those of PF670462 in an assay in BEAS-B cells measuring the induction of the glucocorticoid-regulated gene, SCNN1A encoding the protein epithelial sodium channel alpha subunit. Serum-starved BEAS-2B cells were treated with CK1δ/ε inhibitor PF670462 (1, 3, 10 μM) or SS9-010 (1, 3, 10 μM) 30 min prior to TGF-β1 (40 pM) for 24 hours, then stimulated with dexamethasone (30 nM) for 4 hours. RNA was then extracted and analyzed by RT-qPCR. Data are presented as mean±SEM for n=4 independent experiments. The potency of PF670462 and SS9-010 were similar.

[2] = read-out: -Log IC50 ± SEM (modulation of mRNA level), CTGF induction (converted)
[3] = read-out: -Log IC50 ± SEM (modulation of mRNA level), Col 1A induction (converted)
[4] = read-out: -Log IC50 ± SEM (modulation of mRNA level), E-Cadherin repression (converted)
[5] = read-out: -Log IC50 ± SEM (modulation of mRNA level), PAI-1 induction (converted)

Row | IC50 (TGFβ-activated A549; [2]) [µM] | IC50 (TGFβ-activated A549; [3]) [µM] | IC50 (TGFβ-activated A549; [4]) [µM] | IC50 (TGFβ-activated A549; [5]) [µM] | IC50 (TGFβ-activated A549; read-out: -Log IC50 ± SEM (modulation of mRNA level), Vimentin induction (converted)) [µM] | SMILES | liver baseline mRNA level of PAI-1 (liver gene expression) | liver baseline mRNA level of TMP1 (liver gene expression) | effect on vimentin induction by TGF-β (TGFβ-activated A549; A549, agent 3 μM) | SCNN1A mRNA level, Dex ([1]; agent 3 μM) [fold control] | SCNN1A mRNA level, TGF-β ([1]; agent 3 μM) [fold control] | SCNN1A mRNA level, TGF-β/Dex ([1]; agent 3 μM) [fold control] | SCNN1A mRNA level, vehicle (no stimulus) ([1]; agent 3 μM) [fold control] | potency compared with PF670462, induction of glucocorticoid-regulated gene SCNN1A ([1]; BEAS-2B, 1, 3, 10 μM, TGF-β1 40 pM 24 h, dexamethasone 30 nM 4 h) | SCNN1A mRNA level, Dex ([1]; agent 10 μM) [fold control] | SCNN1A mRNA level, TGF-β ([1]; agent 10 μM) [fold control] | SCNN1A mRNA level, TGF-β/Dex ([1]; agent 10 μM) [fold control] | SCNN1A mRNA level, vehicle (no stimulus) ([1]; agent 10 μM) [fold control]
1 | 1.45 | 3.8 | 8.32 | 3.89 | – | Cl.Nc1nccc(-c2c(-c3ccc(F)cc3)ncn2C2CCCCC2)n1 [PF670462, 4-(1-Cyclohexyl-4-(4-fluorophenyl)-1H-imidazol-5-yl)pyrimidin-2-amine hydrochloride, reference compound] | significant reductions | significant reductions | no effect | 3.36 ± 0.25 | 0.91 ± 0.08 | 2.56 ± 0.08 | 1.11 ± 0.10 | – | – | – | – | –
2 | 0.447 | 0.447 | 2.14 | 0.661 | 3.89 | CNc1nccc(-c2c(-c3ccc(F)cc3)ncn2C2CCCCC2)n1 [SS9-010, 4-(1-Cyclohexyl-4-(4-fluorophenyl)-1H-imidazol-5-yl)-N-methylpyrimidin-2-amine] | – | – | – | 3.77 ± 0.33 | 0.67 ± 0.03 | 2.77 ± 0.31 | 1.14 ± 0.05 | similar | – | – | – | –
3 | – | – | – | – | – | CCCCCCCCN1CCC(n2cnc(-c3ccc(F)cc3)c2-c2ccnc(N)n2)CC1 [SS8-058, 4-(4-(4-Fluorophenyl)-1-[1-octylpiperidin-4-yl]-1H-imidazol-5-yl)pyrimidin-2-amine] | significant reductions | significant reductions | – | – | – | – | – | – | 6.57 | 0.91 | 3.77 | 2.62
